Our source for the IC50 and Bmax values is publication PMC7663645 (Molecules, 2020).

Experiment [1] addresses T1, MAO-B (Rattus norvegicus, UniProt P19643).
T1 construct: from tissue; host or cells: rat brain (membrane homogenates)
T1 sequence (P19643 1-520): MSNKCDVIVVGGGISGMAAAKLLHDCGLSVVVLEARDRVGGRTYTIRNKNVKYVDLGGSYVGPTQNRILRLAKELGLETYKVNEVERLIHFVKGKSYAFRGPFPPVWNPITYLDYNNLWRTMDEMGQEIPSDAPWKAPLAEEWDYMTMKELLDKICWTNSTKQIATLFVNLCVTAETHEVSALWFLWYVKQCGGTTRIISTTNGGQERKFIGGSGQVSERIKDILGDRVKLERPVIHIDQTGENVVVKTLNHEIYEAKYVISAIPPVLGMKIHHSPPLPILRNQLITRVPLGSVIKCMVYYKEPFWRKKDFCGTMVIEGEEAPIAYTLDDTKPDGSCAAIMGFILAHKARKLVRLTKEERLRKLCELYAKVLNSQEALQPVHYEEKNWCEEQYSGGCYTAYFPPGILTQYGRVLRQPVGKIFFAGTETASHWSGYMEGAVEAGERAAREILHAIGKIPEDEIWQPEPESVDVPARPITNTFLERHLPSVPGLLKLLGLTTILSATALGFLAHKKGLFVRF
The experiment is described as follows: Radioligand competition binding assay with L-[^3H]Deprenyl on rat brain membrane homogenates. To be noted: for IC50: read-out: IC50 (MAO-B binding affinity). On the procedure:
The affinity of the synthesized derivatives towards MAO-B was determined in radioligand competition binding assays. […] Non-specific binding was determined in the presence of 10 μM of rasagiline. The reaction was terminated by rapid filtration using Whatman GF/B glass-fiber filters, pre-soaked in 0.3% polyethyleneimine, and a 48-channel harvester (Biomedical Research and Development Laboratories, Gaithersburg, MD, USA) followed by washing four times with ice-cold TRIS-HCl buffer. Filter-bound radioactivity was quantified by liquid scintillation counting. The results represent two single experiments, each performed in triplicate. […] The data were analyzed with GraphPad Prism, Version 4.1 (GraphPad Inc., La Jolla, CA, USA).
A general note: Displacement assays read how much labelled ligand stays bound in the presence of the test substance.

Experiment [2] concerns MAO-B. Details: method as in PMID 31060887. The note with it: cited from earlier work.
The next experiment concerns recombinant human MAO-B. Details: method as in earlier work. To be noted: cited from earlier work.

As for `O=C(c1ccc(F)cc1)N1CCN(C/C=C/c2ccccc2)CC1` [Compound 8, (E)-(4-cinnamylpiperazin-1-yl)(4-fluorophenyl)methanone], the IC50 (in general, the midpoint of a concentration-inhibition curve) at MAO-B [1] is > 10 µM.

In the case of `Fc1cccc(N2CCN(CC=Cc3ccccc3)CC2)n1` [Compound 9, 1-Cinnamyl-4-(6-fluoropyridin-2-yl)piperazine], on MAO-B [1], the IC50 was > 10 µM.

For the compound `Fc1ccc(N2CCN(CC=Cc3ccccc3)CC2)cn1` [Compound 10, 1-Cinnamyl-4-(6-fluoropyridin-3-yl)piperazine], on MAO-B [1], the IC50 is > 10 µM.

Take `Fc1cc(N2CCN(CC=Cc3ccccc3)CC2)ccn1` [Compound 11, 1-Cinnamyl-4-(2-fluoropyridin-4-yl)piperazine]: the IC50 on MAO-B [1] was > 10 µM.

As for `Fc1ncccc1N1CCN(CC=Cc2ccccc2)CC1` [Compound 12, 1-Cinnamyl-4-(2-fluoropyridin-3-yl)piperazine], the IC50 at MAO-B [1] is > 10 µM.

In the case of `O=C(c1ccc(F)cc1)N1CCN(C/C=C/c2ccccc2F)CC1` [Compound 13, (E)-(4-Fluorophenyl)(4-(3-(2-fluorophenyl)allyl)piperazin-1-yl)methanone], the IC50 on MAO-B [1] is > 10 µM.

For the compound `Fc1cccc(N2CCN(C/C=C/c3ccccc3F)CC2)n1` [Compound 14, (E)-1-(3-(2-Fluorophenyl)allyl)-4-(6-fluoropyridin-2-yl)piperazine], the IC50 at MAO-B [1] is > 10 µM.

Turning to `Fc1ccc(N2CCN(C/C=C/c3ccccc3F)CC2)cn1` [Compound 15, (E)-1-(3-(2-Fluorophenyl)allyl)-4-(6-fluoropyridin-3-yl)piperazine], the IC50 on MAO-B [1] was > 10 µM.

Consider `Fc1cc(N2CCN(C/C=C/c3ccccc3F)CC2)ccn1` [Compound 16, (E)-1-(3-(2-Fluorophenyl)allyl)-4-(2-fluoropyridin-4-yl)piperazine], for which the IC50 at MAO-B [1] is > 10 µM.

For the compound `Fc1ccccc1/C=C/CN1CCN(c2cccnc2F)CC1` [Compound 17, (E)-1-(3-(2-Fluorophenyl)allyl)-4-(2-fluoropyridin-3-yl)piperazine], the IC50 on MAO-B [1] was > 10 µM.

Regarding `COC[C@@H]1CN(c2noc3cc(OCCCCC[18F])ccc23)C(=O)O1` [[^18F]6], the IC50 in the experiment with MAO-B [2] was 0.11 µM.

On MAO-B [1] (homologous binding experiments, rat brain homogenates), L-[^3H]Deprenyl [reference compound] yielded a Bmax of 2.29 ± 2.08 pmol/mg protein.

For L-[^18F]Deprenyl, the IC50 in the experiment on recombinant human MAO-B is 0.227 ± 0.0368 µM.
